The test system of the assay is mouse-derived macrophage-like cell line RAW264.7. As to the kind of experiment: Evaluation of NO production amount by Griess method. The note with it: general statement of effect; based on suppression of NO production by M1 macrophage. The class given is cell-based. Here is the method:
The mouse-derived macrophage-like cell line RAW264.7 was seeded in a 48 well plate 1×10^5 cells per well. After culture for 5 hr, Escherichia coli-derived lipopolysaccharide (LPS) was added to 100 ng/mL over 24 hr to activate RAW264.7 cells. Simultaneously with LPS, various compounds (No. 1-No. 17, LA, ALA) were added at 10 μM, and the concentration of […] (NO2^−), which is an oxide of nitric oxide (NO) produced by macrophage activation, in the culture medium was measured. The amount of NO2 in the culture medium was quantified by the Griess method and in reference to Shan Lin et al., Molecular Nutrition and Food Research 57 (2013) p 1135-1144, “Auraptene suppresses inflammatory responses in activated RAW264 macrophages by inhibiting p38 mitogen-activated protein kinase activation”, the section of Material and methods Measurements of TNF-α, MCP-1, and NO concentrations. The quantification was actually performed as follows. RAW264.7 culture medium treated with LPS and various compounds for 24 hr was recovered. 0.2% N-(1-naphthyl) ethylenediamine and 2% Sulfanilamide/10% H3PO4 were blended at 1:1 immediately before reaction to give a Griess reagent, RAW264.7 culture medium and the Griess reagent were mixed at 1:1 and reacted at room temperature for 10 min. After completion of the reaction, absorbance at 550 nm was measured. NaNO2 was used as the NO2^− standard product, and the NO2^− concentration in the culture medium was calculated. The concentration of the sample was adjusted with ethanol. Ethanol was used as a negative control, and BAY11-7082 (5 μM), which is a IκBα phosphorylation inhibitor, was used as a positive control.
In the case of `CCCCC/C=C\CC(O)CCCCCCCCC(=O)O` (stereo not drawn) [No. 4, 10-hydroxy-cis-12-octadecenoic acid], the anti-inflammatory action result is on record as “have an anti-inflammatory action”.
For `CCCCC/C=C\CC(=O)CCCCCCCCC(=O)O` [No. 6, 10-oxo-cis-12-octadecenoic acid], the anti-inflammatory action entry is recorded as “have an anti-inflammatory action”.
Take `CCCCCC(O)CC/C=C\CCCCCCCC(=O)O` (stereo not drawn) [No. 14, 13-hydroxy-cis-9-octadecenoic acid]: the anti-inflammatory action entry is “have an anti-inflammatory action”.
The value for `CCCCCC(=O)CC/C=C\CCCCCCCC(=O)O` [No. 15, 13-oxo-cis-9-octadecenoic acid] was “have an anti-inflammatory action”.
